In paper PMC8151276, “An Integrated Approach toward NanoBRET Tracers for Analysis of GPCR Ligand Engagement” (Molecules, 2021):
Values belong to the molecule of their own block, whether it stands above or below them.

Key:
Format in all cases: binding
[1] = biological target: T1, FPR2 (Homo sapiens, UniProt P25090); assay: NanoBRET screen HiBiT-FPR2 in HEK293
T1 construct: purchased Promega (in-house HiBiT-GPCR construct library, NanoBRET)
T1 sequence (P25090 1-351): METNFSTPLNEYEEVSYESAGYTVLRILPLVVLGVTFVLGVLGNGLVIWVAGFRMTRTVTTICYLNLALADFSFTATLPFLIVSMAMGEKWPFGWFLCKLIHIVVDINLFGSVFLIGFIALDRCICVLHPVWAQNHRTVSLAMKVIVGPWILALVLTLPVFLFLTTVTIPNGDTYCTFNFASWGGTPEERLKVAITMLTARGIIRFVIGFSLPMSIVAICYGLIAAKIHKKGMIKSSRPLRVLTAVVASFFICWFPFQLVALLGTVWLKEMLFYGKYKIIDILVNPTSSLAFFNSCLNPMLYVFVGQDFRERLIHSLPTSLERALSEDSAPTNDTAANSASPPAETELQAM
Procedure: (§1) Each tracer candidate was screened across the entire library of HiBiT-GPCR constructs using NanoBRET as the detection modality. As depicted in Figure 4A, the specificity of interactions was evaluated through decrease in BRET due to competitive displacement of a bound tracer by excess parental compound. Each tracer was analyzed for binding to each HiBiT-GPCR fusion in the absence and in the presence of competing parental compound. Briefly, HEK293 cells were transfected with HiBiT-GPCR constructs diluted into promoterless DNA to reduce expression and maximize translocation to the cell surface. Each tracer candidate was then screened at concentrations of 1 μM and 0.1 μM across cells expressing these fusions. Cells were treated for 1.5 h with tracer either alone or in the presence of 20 μM competing parental compound (i.e., control). BRET was measured upon addition of purified LgBiT and subsequent complementation with HiBiT genetically fused to a GPCR. The specificity of interactions was assessed through a decrease in BRET signal due to competitive displacement of the bound tracer. To further gauge the robustness of these interactions, the fold response over the control (i.e., BRETtracer/BRETcontrol) was calculated. We chose a 1.5-fold response, which translates to ≥7-fold signal over noise as the minimal threshold required to score an interaction as positive. […]. Below we highlight the screening results obtained for our exemplary fluorescent tracers based on Clozapine, Amitriptyline and AZD1283.
(§2) HiBiT-GPCR DNA constructs were diluted in 10 mM Tris pH 8 to a final concentration of 0.01 μg/μL, arrayed in 96-well plates and stored at −20 °C. For transfection, HEK293 cells were suspended in Opti-MEM (without phenol red) supplemented with 2% fetal bovine serum (Seradigm) and 100 units/mL penicillin–streptomycin (Gibco) at a final concentration of 220,000 cells/mL and dispensed into white 96-well plates at 90 μL/well. Subsequent transfections and screens were carried using an Agilent Bravo Automated Liquid Handling Platform. First, the 96-well HiBiT DNA arrays were diluted 25-fold in Opti-MEM (without serum or phenol red) to a final concentration of 0.0004 μg/μL and 20 μL of the diluted DNAs were transferred into new 96-well plates. Next, promoterless carrier DNA (1 μg/μL) was diluted 25-fold (0.04 μg/μL) and then dispensed into the diluted arrays at 20 μL/well. Following brief mixing, Viafect transfection reagent (Promega) diluted 16-fold into Opti-MEM was dispensed into the plates at 40 μL/well. After mixing by pipetting, plates were incubated for 10 min on the pipetting station deck. The DNA-transfection reagent complexes were then added to plates containing cells. To facilitate the screen, 10 μL of DNA-transfection reagent complexes were added in duplicates to the top 4 and bottom 4 rows, resulting in two identical 48-well arrays per plate. Plates with transfected cells were incubated for 18–20 h at 37 °C/5% CO2. A screen of each tracer across the entire library using two different concentrations requires duplicate plates of transfected cells. Depending on the number of tracers being screened, transfections can be scaled up using the same ratios. The next day, for each tracer, four 20× screening solutions in tracer dilution buffer (Promega) were prepared: two duplicates at final concentration of 20 μM and two duplicates at a final concentration of 2 μM. A competing unmodified compound was added to one of each duplicate at a final concentration of 400 μM. The four resulting solutions were diluted 4-fold in Opti-MEM without serum or phenol red to generate 5× solutions (5 µM and 0.5 µM tracer +/− 100 μM competing compound). To screen the library, a BioTek MultiFlo FX liquid dispenser was used to dispense 22.5 µL of tracer solution to the top 4 rows and 22.5 µL tracer + competing compound solution to the 4 bottom rows. Plates were briefly mixed on an orbital shaker and incubated for 1.5 h at room temperature. […]

[2] = biological target: T2, HCRTR2 (Homo sapiens, UniProt O43614); assay: NanoBRET screen HiBiT-HCRTR2 in HEK293
T2 construct: purchased Promega (in-house HiBiT-GPCR construct library, NanoBRET)
T2 sequence (O43614 1-444): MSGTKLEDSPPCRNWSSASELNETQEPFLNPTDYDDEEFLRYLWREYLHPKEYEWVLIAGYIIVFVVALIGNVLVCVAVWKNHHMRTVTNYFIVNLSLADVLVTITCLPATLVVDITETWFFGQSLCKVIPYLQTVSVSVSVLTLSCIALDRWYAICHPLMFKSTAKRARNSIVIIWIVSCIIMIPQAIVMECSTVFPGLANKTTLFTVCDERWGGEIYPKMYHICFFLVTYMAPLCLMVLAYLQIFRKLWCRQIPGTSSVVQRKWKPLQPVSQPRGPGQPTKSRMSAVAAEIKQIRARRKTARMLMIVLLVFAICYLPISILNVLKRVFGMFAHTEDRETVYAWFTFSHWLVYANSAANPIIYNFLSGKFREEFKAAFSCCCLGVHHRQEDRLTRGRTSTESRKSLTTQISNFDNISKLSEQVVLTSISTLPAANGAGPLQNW
Procedure: as §1, §2

[3] = biological target: T3, FZD9 (Homo sapiens, UniProt O00144); assay: NanoBRET screen HiBiT-FZD9 in HEK293
T3 construct: purchased Promega (in-house HiBiT-GPCR construct library, NanoBRET)
T3 sequence (O00144 23-591): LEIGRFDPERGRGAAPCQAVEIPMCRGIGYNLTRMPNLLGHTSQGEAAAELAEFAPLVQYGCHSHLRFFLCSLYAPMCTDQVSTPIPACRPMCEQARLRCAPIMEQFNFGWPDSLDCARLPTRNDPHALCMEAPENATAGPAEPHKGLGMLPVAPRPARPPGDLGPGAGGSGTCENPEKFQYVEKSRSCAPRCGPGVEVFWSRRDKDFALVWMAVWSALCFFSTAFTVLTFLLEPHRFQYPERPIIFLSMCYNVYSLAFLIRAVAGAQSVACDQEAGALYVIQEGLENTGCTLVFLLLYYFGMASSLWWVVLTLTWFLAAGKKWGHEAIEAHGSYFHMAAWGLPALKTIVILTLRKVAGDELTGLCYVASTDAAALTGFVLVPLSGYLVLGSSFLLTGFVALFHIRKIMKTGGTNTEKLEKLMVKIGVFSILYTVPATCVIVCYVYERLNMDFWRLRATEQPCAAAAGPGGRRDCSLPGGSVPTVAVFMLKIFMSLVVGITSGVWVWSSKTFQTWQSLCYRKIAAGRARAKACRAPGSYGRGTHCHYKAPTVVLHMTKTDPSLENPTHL
Procedure: as §1, §2

[4] = tracer at 0.1μM, listed as amitriptyline-b-2-NB590
[5] = tracer at 1μM, listed as amitriptyline-b-2-NB590

NanoBRET Fold Response ([1]; FPR2, 0.1μM): 0.99
NanoBRET Fold Response ([1]; FPR2, 1μM): 1.04
NanoBRET Fold Response ([2]; HCRTR2, 0.1μM): 1.01
NanoBRET Fold Response ([2]; HCRTR2, 1μM): 1.01
NanoBRET Fold Response ([3]; FZD9, 0.1μM): 1.05
NanoBRET Fold Response ([3]; FZD9, 1μM): 1.02
SMILES: CCOC(=O)c1cc(C#N)c(N2CCC(C(=O)NS(=O)(=O)Cc3ccccc3/C=C/C(=O)NCCNC(=O)CCc3ccc4n3[B-](F)(F)[N+]3=C(c5ccc[nH]5)C=CC3=C4)CC2)nc1C [AZD1283-1-NB590]

NanoBRET Fold Response ([1]; FPR2, tracer 0.1μM): 0.95
NanoBRET Fold Response ([1]; FPR2, tracer 1μM): 1.10
NanoBRET Fold Response ([2]; HCRTR2, tracer 0.1μM): 1.01
NanoBRET Fold Response ([2]; HCRTR2, tracer 1μM): 0.97
NanoBRET Fold Response ([3]; FZD9, tracer 0.1μM): 1.08
NanoBRET Fold Response ([3]; FZD9, tracer 1μM): 1.01
SMILES: N#CN=C(NCCCOc1cccc(CN2CCCCC2)c1)NCCNC(=O)CCOCCOCCOCCOCCNC(=O)CCc1ccc2n1[B-](F)(F)[N+]1=C(c3ccc[nH]3)C=CC1=C2 [Aminopotentidine-2-NB590]

SMILES: CN(C)CCC=C1c2ccccc2CCc2ccc(C(=O)NCCNC(=O)CCOCCOCCOCCOCCNC(=O)CCc3ccc4n3[B-](F)(F)[N+]3=C(c5ccc[nH]5)C=CC3=C4)cc21 [Amitriptyline-a-2-NB590]
NanoBRET Fold Response ([1]; tracer at 0.1μM): 0.96
NanoBRET Fold Response ([1]; tracer at 1μM): 1.05
NanoBRET Fold Response ([2]; tracer at 0.1μM): 1.05
NanoBRET Fold Response ([2]; tracer at 1μM): 1.08
NanoBRET Fold Response ([3]; tracer at 0.1μM): 0.96
NanoBRET Fold Response ([3]; tracer at 1μM): 1.07

SMILES: CN(C)CCC=C1c2ccccc2CCc2ccc(C(=O)NCCNC(=O)CCOCCOCCOCCOCCNC(=O)CCc3ccc4n3[B-](F)(F)[N+]3=C(c5ccc[nH]5)C=CC3=C4)cc21 [Amitriptyline-b-2-NB590]
NanoBRET Fold Response [1, 4]: 0.88
NanoBRET Fold Response ([1]; tracer at 1μM): 0.99
NanoBRET Fold Response [2, 4]: 1.00
NanoBRET Fold Response [2, 5]: 0.98
NanoBRET Fold Response [3, 4]: 1.04
NanoBRET Fold Response [3, 5]: 1.11

NanoBRET Fold Response ([1]; 0.1μM tracer): 0.96
NanoBRET Fold Response ([1]; 1μM tracer): 1.50
NanoBRET Fold Response ([2]; 0.1μM tracer): 1.04
NanoBRET Fold Response ([2]; 1μM tracer): 1.30
NanoBRET Fold Response ([3]; 0.1μM tracer): 1.17
NanoBRET Fold Response ([3]; 1μM tracer): 1.15
SMILES: COc1ccc2c(n1)c(CCNC(C)=O)cn2CCNC(=O)CCc1ccc2n1[B-](F)(F)[N+]1=C(c3ccc[nH]3)C=CC1=C2 [Azamelatonin-1-NB590]

NanoBRET Fold Response ([1]; 0.1μM tracer): 0.74
NanoBRET Fold Response ([1]; 1μM tracer): 1.09
NanoBRET Fold Response ([2]; 0.1μM tracer): 1.02
NanoBRET Fold Response ([2]; 1μM tracer): 1.08
NanoBRET Fold Response ([3]; 0.1μM tracer): 1.30
NanoBRET Fold Response ([3]; 1μM tracer): 0.94
SMILES: COc1ccc2[nH]c(-c3ccc(CNC(=O)CCOCCOCCOCCOCCNC(=O)CCc4ccc5n4[B-](F)(F)[N+]4=C(c6ccc[nH]6)C=CC4=C5)cc3)c(CCNC(C)=O)c2n1 [AzomelatoninICO9-2-NB590]
